Experimental data from US20230295212A1 (ROME Therapeutics, Inc., priority 2022, published 2023).
Where a name gives a salt, the structure may show the parent alone.

How the values were obtained:
[1] = target: T1, HERV-K reverse transcriptase (Homo sapiens, UniProt V9H0F6); assay: Homogeneous time-resolved fluorescence (HTRF) HERV-K RT assay; format: biochemical; conditions: triphosphate analogs, HERV-K enzyme 16 ng/well, 25° C. 30 minutes
T1 construct: fused on or other part: C-terminal 8xHis tag
Method: Exemplary triphosphate analogs were tested for ability to inhibit HERV-K reverse transcriptase using a homogeneous time-resolved fluorescence (HTRF) assay. Assay procedures and results are described below.
The HERV-K reverse transcriptase homogeneous time-resolved fluorescence (HTRF) assay was performed in a 384-well format with HERV-K reverse transcriptase (2-596)-8His protein. Baculoviruses were created using Bac-to-Bac technology (Invitrogen). pFastflac donor plasmids containing HERV-K reverse transcriptase sequence (NCBI GenBank number AAC63291.1, J. Virology (1999) Vol. 73, No. 3, pp. 2365-2375) were transformed into DH10 Bac cells following the manufacturer's instructions. Recombinant bacmids were then isolated clonally and transfected into SF9 cells with lipofectin. HERV-K reverse transcriptase was expressed in the SF9 insect cells and then purified using immobilized metal affinity chromatography (IMAC) followed by size-exclusion chromatography (SEC).
Test compound was serially diluted in DMSO and further diluted in the assay buffer (50 mM Tris-HCl, 50 mM KCl, 10 mM MgCl2, 10 mM DTT, pH 8.1) to achieve a final DMSO concentration of 1%. The serially diluted compound was mixed with 16 ng/well of HERV-K enzyme, 5 nM of pre-annealed template/biotin-primer pair (synthesized at Geneway Biotechnology), 10 nM of Fluorescein-12-dCTP fluorescent probe (PerkinElmer), and 1 mM dGTP, dATP, and DTTP (ThermoFisher). The template/biotin-primer sequences were:
After incubating at 25° C. for 30 minutes, the detection reagent 20 mM EDTA with streptavidin-terbium cryptate (Cisbio Bioassay) in the PPI buffer (Cisbio Bioassay) was added, and the mixture was incubated at 25° C. for 60 minutes. At the end of the incubation, fluorescence was read at ex/em=337/485 nm and ex/em=337/520 nm on an Envision 2104 plate reader (PerkinElmer). The fluorescence ratio at 520/485 nm was used for the calculation. […] IC50 values were calculated by fitting the compound dose inhibition curve with a 4-parameter non-linear regression equation.

[2] = target: T2, LINE1 reverse transcriptase (recombinant MBP-tagged LINE1 protein (238-1061)) (Homo sapiens, UniProt O00370); assay: Homogeneous time-resolved fluorescence (HTRF) LINE1 RT assay; format: biochemical; conditions: triphosphate analogs, LINE1 enzyme 64 ng/well, 25° C. 60 minutes
T2 construct: recombinant MBP-tagged LINE1 protein (238-1061); made in house
Method: Exemplary triphosphate analogs were tested for the ability to inhibit LINE1 reverse transcriptase using a homogeneous time-resolved fluorescence (HTRF) assay. Assay procedures and results are described below.
The LINE1 reverse transcriptase homogeneous time-resolved fluorescence (HTRF) assay was performed with recombinant MBP-tagged LINE1 protein (238-1061) (generated and purified according to procedures in Dai L. et al. BMC Biochemistry 2011; 12:18) in a 384-well format. Test compound was serially diluted in DMSO and further diluted in the assay buffer (50 mM Tris-HCl, 50 mM KCl, 10 mM MgCl2, 10 mM DTT, pH 8.1) to achieve a final DMSO concentration of 1%. The serially diluted compound was mixed with 64 ng/well of LINE1 enzyme, 5 nM of pre-annealed template/biotin-primer pair (synthesized at Generay Biotechnology), 10 nM of Fluorescein-12-dCTP fluorescent probe (PerkinElmer), and 1 μM dGTP/dATP/dTTP (ThermoFisher Scientific) in the assay buffer. The template/biotin-primer sequences were as follows:
After incubating at 25° C. for 60 minutes, the detection reagent (20 mM EDTA with streptavidin-terbium cryptate, Cisbio Bioassay) in the PPI buffer (Cisbio Bioassay) was added, and the mixture was incubated at 25° C. for 30 minutes. At the end of the incubation, fluorescence was read at ex/em=337/485 nm and ex/em=337/520 nm on an Envision 2104 plate reader (PerkinElmer). The fluorescence ratio at 520/485 nm was used for the calculation. […] The IC50 was calculated by fitting the compound dose inhibition curve with a 4-parameter non-linear regression equation.

[3] = test system: THP1-Dual KO-TREX1 xenograft tumors; assay: Altering IFN production in THP1 TREX1 KO xenografts (compounds 2, 25, 40); format: in vivo, mouse; conditions: CB-17 SCID mice, decitabine 5 mg/kg IP, test compound 10, 30 or 100 mg/kg PO once daily 4 days, tumors 24 h post-last dose
Method: Exemplary compounds 2, 25 and 40 were tested for their ability to alter IFN levels in THP1-Dual™ KO-TREX1 xenografts in mice. Assay procedures are described below.
CB-17 SCID female mice were inoculated subcutaneously with 10 million THP1-Dual™ KO-TREX1 cells in 200 μl PBS with Matrigel (1:1) and grouped when tumor volume reached 350-400 mm^3. Mice bearing THP1-Dual™ KO-TREX1 xenograft tumors were then separated into 5 groups. Three groups were administered: (1) decitabine (DAC) at 5 mg/kg IP, once daily, for 4 days, and (2) test compound at 10, 30, or 100 mg/kg, PO, once daily, for 4 days. One group was administered decitabine (DAC) at 5 mg/kg IP, once daily, for 4 days, and the test compound vehicle control. The final group was administered the vehicle control from both the test compound and the vehicle control from decitabine. Decitabine is formulated in sterile PBS, pH 7.4, and Compound 2, 25, and 40 were formulated in 20% PEG400 in PBS.
Tumors were harvested 24 h post-last dose administered on day 4, ground in PBS at 50 Hz for 5 min, and kept on ice for 30 min while being vortexed every 5 min. […] Equal amounts of proteins were added to 96-well black plates, and luciferase signal was measured using the QUANTI-Luc™ detection medium according to manufacturer's instructions. Luminescence was measured using the EnVision® 2105 Multimode Plate Reader. […]

T1 sequence (V9H0F6 entry or part of it): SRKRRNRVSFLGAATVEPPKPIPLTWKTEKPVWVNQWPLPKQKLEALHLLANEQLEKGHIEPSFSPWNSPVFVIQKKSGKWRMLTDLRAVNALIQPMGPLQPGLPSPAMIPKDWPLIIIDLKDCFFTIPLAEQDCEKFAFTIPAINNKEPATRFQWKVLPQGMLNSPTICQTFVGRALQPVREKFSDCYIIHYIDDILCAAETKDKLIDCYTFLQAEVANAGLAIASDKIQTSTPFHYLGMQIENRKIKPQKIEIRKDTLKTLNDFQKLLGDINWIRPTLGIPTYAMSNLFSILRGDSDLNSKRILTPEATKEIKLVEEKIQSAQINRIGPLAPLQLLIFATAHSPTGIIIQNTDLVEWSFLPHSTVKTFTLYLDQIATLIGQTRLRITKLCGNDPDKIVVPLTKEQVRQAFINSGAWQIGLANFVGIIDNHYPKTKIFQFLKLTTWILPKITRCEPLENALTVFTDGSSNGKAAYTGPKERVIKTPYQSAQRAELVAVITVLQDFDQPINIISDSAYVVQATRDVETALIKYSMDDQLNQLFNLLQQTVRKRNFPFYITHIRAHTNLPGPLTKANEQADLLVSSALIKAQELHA

CC[C@]1(COP(=O)(O)OP(=O)(O)OP(=O)(O)O)O[C@@H](n2ccc(N)nc2=O)C[C@@H]1O [44-TP] showed an IC50 [1] greater than 10000 nM and an IC50 [2] of 108 nM.
With C=C[C@]1(COP(=O)(O)OP(=O)(O)OP(=O)(O)O)O[C@@H](n2ccc(N)nc2=O)C[C@@H]1O [Compound 43-TP] the IC50 [1] was 4010 nM and the IC50 [2] was 81 nM.
Work on Nc1ccn([C@@H]2O[C@](CCl)(COP(=O)(O)OP(=O)(O)OP(=O)(O)O)[C@@H](O)[C@@H]2F)c(=O)n1 [Compound 40-TP] yielded an IC50 [1] greater than 10000 nM and an IC50 [2] of 831 nM.
With Nc1nc(=O)n([C@H]2C[C@H](O)[C@@](CCl)(COP(=O)(O)OP(=O)(O)OP(=O)(O)O)O2)cc1F [Compound 14-TP, ((2R,3S,5R)-5-(4-amino-5-fluoro-2-oxopyrimidin-1(2H)-yl)-2-(chloromethyl)-3-hydroxytetrahydrofuran-2-yl)methyl tetrahydrogen triphosphate TEA Salt] the IC50 [1] was greater than 10000 nM and the IC50 [2] was 272 nM.
In the case of Nc1ccn([C@H]2C[C@H](O)[C@](CO)(CCl)O2)c(=O)n1 [Compound 2, 4-amino-1-((2R,4S,5R)-5-(chloromethyl)-4-hydroxy-5-(hydroxymethyl)tetrahydrofuran-2-yl)pyrimidin-2(1H)-one], the “inhibition of DAC-induced IFN signal in THP1 tumors” value [3] is reported as “potent inhibition of DAC-induced IFN signal”.
Work on Nc1ccn([C@H]2C[C@H](O)[C@@](CCl)(COP(=O)(O)OP(=O)(O)OP(=O)(O)O)O2)c(=O)n1 [Compound 2-TP] yielded an IC50 [1] of 17000 nM and an IC50 [2] of 47.5 nM.
In the case of C#C[C@]1(COP(=O)(O)OP(=O)(O)OP(=O)(O)O)O[C@@H](n2ccc(N)nc2=O)[C@@H](F)[C@@H]1O [Compound 35-TP], the IC50 [1] is reported as 13 nM and the IC50 [2] is reported as 13.7 nM.
With Nc1nc(=O)n([C@@H]2O[C@](CCl)(COP(=O)(O)OP(=O)(O)OP(=O)(O)O)[C@@H](O)[C@@H]2F)cc1F [Compound 67-TP] the IC50 [1] was greater than 10000 nM and the IC50 [2] was 430 nM.
